{
  "source": "patent US4416871A",
  "about": "“Inhibition by peptides of tolerance to and physical dependence on morphine” (The United States of America as represented by the …, priority 1982, dated 1983)",
  "type_in_all_cases": "in vivo",
  "key": {"[1]": {"tested_on": "morphine-dependent mice", "test": "Body temperature, body weight and mortality during 3-day morphine pellet implantation with multiple peptide injections", "description": "Male C57B1/6J, Swiss Webster, and ICR mice weighing 26±4 g (SD) were used in these studies.\n(§1) The mice were randomly divided into two groups. One received SC injections of water (vehicle) while the other received the peptide under investigation (50 μg/mouse on day one). Two hours later the mice were further subdivided and each subgroup was implanted with placebo or morphine pellets. The injections of vehicle and peptide were repeated 24 and 48 hours after the first injection in their respective groups. Morphine pellets containing 75 mg of morphine free base were implanted subcutaneously (SC) between 10-11 A.M. and were removed 3 days later at the same time. The control animals were implanted with placebo pellets. Body temperature and weight were measured daily at 11 A.M. Temperature was measured using a lubricated rectal probe inserted 2.5 cm into the rectum and measured with a telethermometer (Model 43TA Yellow Springs Instrument Co., Yellow Springs, Ohio).\nA similar relationship was found for the loss in body weight. Swiss Webster mice lost 16% and 14% in body weight when receiving Z-Pro-D-Leu or vehicle respectively. The C57B1/6J mice given Z-Pro-D-Leu/morphine lost 14%, while the vehicle/morphine group lost 11% in body weight during this period regardless of peptide or vehicle injections. There was one significant strain difference, i.e. a greater mortality during morphine treatment of C57B1/6J mice ([…], Binomial test)."}, "[2]": {"test": "Brain levels of morphine, fluorometric", "conditions": "Swiss Webster mice, third day of morphine treatment, n=6", "description": "Brain levels of morphine were measured in mice which received either the peptide or vehicle injections. For these studies mice were also sacrificed on the third day following morphine implantation. The mice were then sacrificed by decapitation, brains were rapidly removed, frozen on dry ice, and stored at -80° C. until assay for morphine content. Brain morphine concentrations were determined fluorometrically (Bhargava, H. N., J. Pharma. Sci., 66, 1044-1045[1977])."}, "[3]": {"tested_on": "morphine-dependent mice", "test": "Analgesia during morphine pellet implantation: jump threshold on electrified grid", "conditions": "peptide-injected mice receiving morphine", "description": "(§2) The level of analgesia was tested on each of the three days of the experiment. This was accomplished by measuring the jump threshold to an increasing electrical current in an electrified grid attached to a BRS/LVE #SGS-004 shock generator/scrambler (Evans, W. D., Phychopharmacol., 2, 318-325[1961]). Mice were tested only once and thereafter discarded from the experiment. When determining the effect of the peptide on overt signs of physical dependence (body temperature and weight) and tolerance (body temperature and analgesia), the peptide or vehicle was injected only once on the third day of the morphine or placebo pellet implantation (25 hours prior to the removal of the pellet).\nInhibition of development of tolerance to and physical dependence upon morphine by Z-Pro-D-Leu. The jump threshold in vehicle-injected, morphine-dependent mice decreased, indicating development of tolerance to the analgesic properties of morphine. Threshold scores were: 4.00±0.18;3.50±0.52; 2.55±0.44; on days 1-3 respectively, (n=6 for each group)."}, "[4]": {"tested_on": "morphine-dependent mice", "test": "Abrupt withdrawal after pellet removal: body temperature and body weight for 10 hours (FIG. 1)", "conditions": "Swiss Webster mice, any time point up to 10 hours", "description": "FIG. 1 illustrates the inhibition of development of physical dependence (abrupt withdrawal) by Z-Pro-D-Leu. Swiss Webster mice were implanted with either morphine or placebo tablets for a period of 3 days. Following removal of the pellets, body temperature and body weight were followed for 10 hours. Panel (a) represents the change in body temperature: (Δ--Δ) Z-Pro-D-Leu/morphine; (O--O) vehicle/morphine; ( -- ) Z-Pro-D-Leu/placebo; ( -- ) vehicle/placebo. Panel (b) represents the maximal loss in body weight during the same period.\nTo determine the effects of peptide treatment on the development of physical dependence, the abstinence syndrome was precipitated using the morphine antagonist naloxone (Endo Laboratories Inc., N.Y.) at the appropriate dose (0.1, 0.25, or 0.50 mg/kg) injected intraperitoneally (IP) one hour following removal of morphine and placebo pellets. Pellet removal was performed 24 hours after the last peptide injection. These mice were monitored for changes in body temperature (see above) and body weight at 15 min. intervals for one hour after the naloxone injection. Effects of removing the pellets (withdrawing morphine) were also assessed by utilizing body temperature and weight as physical dependence parameters; however, these measurements were made at 2 hour intervals for 10 hours after the removal of the pellets. […]"}, "[5]": {"tested_on": "morphine-dependent mice", "test": "Naloxone-precipitated withdrawal: body temperature and withdrawal signs", "description": "as §1\nTo determine the effects of peptide treatment on the development of physical dependence, the abstinence syndrome was precipitated using the morphine antagonist naloxone (Endo Laboratories Inc., N.Y.) at the appropriate dose (0.1, 0.25, or 0.50 mg/kg) injected intraperitoneally (IP) one hour following removal of morphine and placebo pellets. Pellet removal was performed 24 hours after the last peptide injection. These mice were monitored for changes in body temperature (see above) and body weight at 15 min. intervals for one hour after the naloxone injection. Effects of removing the pellets (withdrawing morphine) were also assessed by utilizing body temperature and weight as physical dependence parameters; however, these measurements were made at 2 hour intervals for 10 hours after the removal of the pellets. Placebo implanted mice were treated in the same manner as the morphine pellet implanted mice."}, "[6]": {"tested_on": "morphine-dependent mice", "test": "Tolerance to hypothermic and analgesic effects of ICV morphine 24 hours after pellet removal", "conditions": "for Jump Threshold: one hr. after ICV morphine", "description": "as §2\nTolerance to hypothermic and analgesic effects of morphine injected intracerebroventricularly (ICV) was assessed 24 hours after the removal of the pellets in mice not injected with naloxone. The ICV injection was 40 μg of morphine sulfate solution in 10 μl volume. Body temperature was recorded prior to and at 10 and 15 min. after injection of morphine. Analgesia was determined one hour after the ICV injection."}, "[7]": {"tested_on": "morphine-dependent mice", "test": "Naloxone-precipitated withdrawal: body temperature and withdrawal signs", "remark": "listed apart in the source"}, "[8]": {"conditions": "C57B1/6J, Z-Pro-D-Leu/morphine, peptide day 3 only, n=6, ICV morphine challenge"}, "[9]": {"conditions": "C57B1/6J, Z-Pro-D-Leu/placebo pellets, n=8, ICV morphine challenge"}, "[10]": {"conditions": "C57B1/6J, Z-Pro-D-Leu/placebo, peptide day 3 only, n=6, ICV morphine challenge"}, "[11]": {"conditions": "Swiss Webster, Z-Pro-D-Leu/morphine pellets, n=15, ICV morphine challenge"}, "[12]": {"conditions": "Swiss Webster, Z-Pro-D-Leu/placebo pellets, n=8, ICV morphine challenge"}},
  "data": [
    {"substance": "Z-Pro-D-Leu", "values": [
      {"measurement": "number of deaths, peptide/morphine compared with vehicle/morphine", "setting": "[1]; C57B1/6J P=0.32, Swiss Webster P=0.65, Binomial test", "value": "no difference in the number of deaths"},
      {"measurement": "body temperature (X) on the third day of morphine treatment", "setting": "[1]; Swiss Webster mice, morphine pellets, multiple injections of peptide 50 μg/mouse SC, day 3, n=14", "value": -1.5, "unit": "°C"},
      {"measurement": "body temperature on days 1 and 2 versus vehicle", "setting": "[1]; Swiss Webster or C57B1/6J mice receiving morphine, days 1 and 2", "value": "no significant difference in body temperature"},
      {"measurement": "brain morphine levels", "setting": "[2]", "value": "288 ± 99", "unit": "µg/g"},
      {"measurement": "jump threshold score", "setting": "[3]; day 1", "value": "4.07±0.27"},
      {"measurement": "jump threshold score", "setting": "[3]; day 2", "value": "4.27±0.62"},
      {"measurement": "jump threshold score", "setting": "[3]; day 3", "value": "4.45±0.64"},
      {"measurement": "hypothermia and loss of body weight during abstinence, peptide/morphine versus the two control groups", "setting": "[4]", "value": "no significant difference"},
      {"measurement": "Withdrawal, % of control (jumping, shakes, diarrhea)", "setting": "[5]; Table II, peptide 50 μg per mouse, naloxone 0.1 mg/kg", "value": 9, "unit": "%"},
      {"measurement": "Δt, °C. (difference in body temperature just prior to naloxone and 30 min. thereafter)", "setting": "[5]; Table II, peptide 50 μg per mouse, naloxone 0.1 mg/kg, mean ± SD", "value": "-0.09 ± 0.58", "unit": "°C"},
      {"measurement": "Withdrawal, % of control", "setting": "[5]; Table III, dose 50 μg", "value": 9, "unit": "%"},
      {"measurement": "Δt, °C.", "setting": "[5]; Table III, dose 50 μg", "value": "-0.09 ± 0.58", "unit": "°C"},
      {"measurement": "lowest dose still effective in blocking physical dependence on morphine", "setting": "[5]; dose-response experiments, Table III", "value": 5, "unit": "μg per mouse"},
      {"measurement": "ability to block development of physical dependence on morphine", "setting": "[5]; naloxone-precipitated withdrawal, Tables II and III", "value": "exhibited activity"},
      {"measurement": "Δt (15 min.)", "setting": "[6]; C57B1/6J, Z-Pro-D-Leu/morphine pellets, n=9, ICV morphine challenge", "value": "-2.12 ± 0.52"},
      {"measurement": "Δt (10 min.)", "setting": "[6]; C57B1/6J, Z-Pro-D-Leu/morphine pellets, n=9, ICV morphine challenge 24 hrs after pellet removal", "value": "-2.04 ± 0.42"},
      {"measurement": "Δt (10 min.)", "setting": "[6]; [8]", "value": "-0.75 ± 0.19"},
      {"measurement": "Δt (15 min.)", "setting": "[6]; [8]", "value": "-1.00 ± 0.16"},
      {"measurement": "Jump Threshold", "setting": "[6]; C57B1/6J, Z-Pro-D-Leu/morphine, peptide day 3 only, n=6", "value": "2.12 ± 0.34"},
      {"measurement": "Δt (10 min.)", "setting": "[6]; [9]", "value": "-1.76 ± 0.33"},
      {"measurement": "Δt (15 min.)", "setting": "[6]; [9]", "value": "-2.19 ± 0.41"},
      {"measurement": "Jump Threshold", "setting": "[6]; C57B1/6J, Z-Pro-D-Leu/placebo pellets, n=8", "value": "3.79 ± 0.39"},
      {"measurement": "Δt (10 min.)", "setting": "[6]; [10]", "value": "-1.85 ± 0.25"},
      {"measurement": "Δt (15 min.)", "setting": "[6]; [10]", "value": "-1.88 ± 0.17"},
      {"measurement": "Jump Threshold", "setting": "[6]; C57B1/6J, Z-Pro-D-Leu/placebo, peptide day 3 only, n=6", "value": "4.05 ± 0.85"},
      {"measurement": "Δt (10 min.)", "setting": "[6]; [11]", "value": "-1.10 ± 0.29"},
      {"measurement": "Δt (15 min.)", "setting": "[6]; [11]", "value": "-1.32 ± 0.34"},
      {"measurement": "Jump Threshold", "setting": "[6]; Swiss Webster, Z-Pro-D-Leu/morphine pellets, n=15", "value": "4.33 ± 0.54"},
      {"measurement": "Δt (10 min.)", "setting": "[6]; [12]", "value": "-1.16 ± 0.30"},
      {"measurement": "Δt (15 min.)", "setting": "[6]; [12]", "value": "-1.48 ± 0.46"},
      {"measurement": "Jump Threshold", "setting": "[6]; Swiss Webster, Z-Pro-D-Leu/placebo pellets, n=8", "value": "4.18 ± 0.41"},
      {"measurement": "response to ICV injection of morphine", "setting": "[6]; peptide given during chronic morphine treatment", "value": "not significantly different from morphine-naive mice"},
      {"measurement": "response to ICV injection of morphine", "setting": "[6]; peptide given only on the third day of pellet implantation", "value": "did not effectively alter the manifestation of tolerance"},
      {"measurement": "Withdrawal, % of control", "setting": "[7]; Table III, dose 0.5 μg", "value": 100, "unit": "%"},
      {"measurement": "Withdrawal, % of control", "setting": "[7]; Table III, dose 5 μg", "value": 25, "unit": "%"},
      {"measurement": "Δt, °C.", "setting": "[7]; Table III, dose 5 μg", "value": "-0.05 ± 0.37", "unit": "°C"},
      {"measurement": "body temperature response 30 min after naloxone", "setting": "[7]; peptide injection only on the third day of morphine treatment", "value": "hypothermic response"},
      {"measurement": "body temperature response 30 min after naloxone", "setting": "[7]; peptide/morphine treatment, multiple injections, naloxone 0.1-0.50 mg/kg IP", "value": "mild hyperthermia"}
    ]}
  ]
}
